Molecular target: T1, human oxytocin receptor (Homo sapiens, UniProt P30559)
T1 construct: host or cells: CHO cells (pcDNA3.1 vector)
T1 sequence (P30559 1-389): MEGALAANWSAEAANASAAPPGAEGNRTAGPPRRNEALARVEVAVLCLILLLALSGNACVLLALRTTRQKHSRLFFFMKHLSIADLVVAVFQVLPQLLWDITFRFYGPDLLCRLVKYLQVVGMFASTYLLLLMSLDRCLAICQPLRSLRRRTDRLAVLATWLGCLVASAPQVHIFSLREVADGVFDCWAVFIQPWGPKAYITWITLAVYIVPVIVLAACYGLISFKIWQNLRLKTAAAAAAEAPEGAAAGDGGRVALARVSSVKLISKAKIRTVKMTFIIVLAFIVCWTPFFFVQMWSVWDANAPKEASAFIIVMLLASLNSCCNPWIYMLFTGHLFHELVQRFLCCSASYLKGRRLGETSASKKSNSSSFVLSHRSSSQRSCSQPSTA
Assay: Oxytocin binding in Chinese Hamster Ovary cell membranes expressing human oxytocin receptors
Details: 100 nM, CHO cell membranes, [3H]oxytocin, values without parentheses, read-out: OT % inhibition @ 100% nM

| Compound | inhibition at 0.1 µM [%] |
| --- | --- |
| Cc1cc(C(=O)N2Cc3ccc(C(=O)N4CCN(C(C)C)CC4)n3Cc3ccccc32)ccc1-c1ccccc1C(F)(F)F [Example 240, (4-Isopropyl-1-piperazinyl)(10-{[2-methyl-2′-(trifluoromethyl)[1,1′-biphenyl]-4-yl]carbonyl}-10,11-dihydro-5H-pyrrolo[2,1-c][1,4]benzodiazepin-3-yl)methanone] | 62 |
| Cc1cc(C(=O)N2Cc3ccc(C(=O)N(C)C4CCN(C)CC4)n3Cc3ccccc32)ccc1-c1ccccc1C(F)(F)F [Example 184, N-Methyl-N-(1-methyl-4-piperidinyl)-10-{[2-methyl-2′-(trifluoromethyl)[1,1′-biphenyl]-4-yl]carbonyl}-10,11-dihydro-5H-pyrrolo[2,1-c][1,4]benzodiazepine-3-carboxamide] | 83 |
| COc1cccc(-c2ccc(C(=O)N3Cc4ccc(C(=O)N5CCN(CCN6CCOCC6)CC5)n4Cc4ccccc43)cc2C)c1 [Example 208, {10-[(3′-Methoxy-2-methyl[1,1′-biphenyl]-4-yl)carbonyl]-10,11-dihydro-5H-pyrrolo[2,1-c][1,4]benzodiazepin-3-yl}{4-[2-(4-morpholinyl)ethyl]-1-piperazinyl}methanone] | 81 |
| COc1cc(C(=O)N2Cc3ccc(C(=O)N4CCN(C(C)C)CC4)n3Cc3ccccc32)ccc1-c1cccc2ccccc12 [Example 236, (4-Isopropyl-1-piperazinyl){10-[3-methoxy-4-(1-naphthyl)benzoyl]-10,11-dihydro-5H -pyrrolo[2,1-c][1,4]benzodiazepin-3-yl}methanone] | 46 |
| Cc1cc(C(=O)N2Cc3ccc(C(=O)NCCC4CCCN4C)n3Cc3ccccc32)ccc1-c1ccccc1C(F)(F)F (stereo not shown) [Example 174, N-[2-(1-Methyl-2-pyrrolidinyl)ethyl]-10-{[2-methyl-2′-(trifluoromethyl)[1,1′-biphenyl]-4-yl]carbonyl}-10,11-dihydro-5H-pyrrolo[2,1-c][1,4]benzodiazepine-3-carboxamide] | 59 |
| COc1cc(C(=O)N2Cc3ccc(C(=O)NCCC4CCCN4C)n3Cc3ccccc32)ccc1-c1cccc2ccccc12 (stereo not shown) [Example 170, 10-[3-Methoxy-4-(1-naphthyl)benzoyl]-N-[2-(1-methyl-2-pyrrolidinyl)ethyl]-10,11-dihydro-5H-pyrrolo[2,1-c][1,4]benzodiazepine-3-carboxamide] | 47 |

The remaining lines, values ahead:

| inhibition at 0.1 µM [%] | Compound |
| --- | --- |
| 93 | COc1cc(C(=O)N2Cc3ccc(C(=O)N(C)C4CCN(C)CC4)n3Cc3ccccc32)ccc1-c1ccccc1C [Example 179, 10-[(2-Methoxy-2′-methyl[1,1′-biphenyl]-4-yl)carbonyl]-N-methyl-N-(1-methyl-4-piperidinyl)-10,11-dihydro-5H-pyrrolo[2,1-c][1,4]benzodiazepine-3-carboxamide] |
| 88 | COc1cccc(-c2ccc(C(=O)N3Cc4ccc(C(=O)N(C)C5CCN(C)CC5)n4Cc4ccccc43)cc2C)c1 [Example 176, 10-[(3′-Methoxy-2-methyl[1,1′-biphenyl]-4-yl)carbonyl]-N-methyl-N-(1-methyl-4-piperidinyl)-10,11-dihydro-5H-pyrrolo[2,1-c][1,4]benzodiazepine-3-carboxamide] |
| 51 | COc1ccccc1-c1ccc(C(=O)N2Cc3ccc(C(=O)N4CCN(C(C)C)CC4)n3Cc3ccccc32)cc1OC [Example 241, {10-[(2,2′-Dimethoxy[1,1-biphenyl]4-yl)carbonyl]-10,11-dihydro-5H-pyrrolo[2,1-c][1,4]benzodiazepin-3-yl}(4-isopropyl-1-piperazinyl)methanone] |
| 21 | COc1cc2c(cc1OC)N(C(=O)c1ccc(-c3ccccc3C(F)(F)F)c(C)c1)Cc1cccn1C2 [Example 12, 7,8-Dimethoxy-[10,11-dihydro-5H-pyrrolo[2,1-c][1,4]benzodiazepin-10-yl][2-methyl-2′-(trifluoromethyl)[1,1′-biphenyl]-4-yl]methanone] |
| 79 | COc1cc(C(=O)N2Cc3ccc(C(=O)N4CCN(C(C)C)CC4)n3Cc3ccccc32)ccc1-c1ccccc1C [Example 237, (4-isopropyl-1-piperazinyl){10-[(2-methoxy-2′-methyl[1,1′-biphenyl]-4-yl)carbonyl]-10,11-dihydro-5H-pyrrolo[2,1-c][1,4]benzodiazepin-3-yl}methanone] |
| 69 | C=CCN1CCN(C(=O)c2ccc3n2Cc2ccccc2N(C(=O)c2ccc(-c4ccccc4OC)c(OC)c2)C3)CC1 [Example 227, (4-Allyl-1-piperazinyl){10-[(2,2′-dimethoxy[1,1′-biphenyl]-4-yl)carbonyl]-10,11-dihydro-5H -pyrrolo[2,1-c][1,4]benzodiazepin-3-yl}methanone] |
| 96 | COc1ccccc1-c1ccc(C(=O)N2Cc3ccc(C(=O)N(C)C4CCN(C)C4)n3Cc3ccccc32)cc1OC (stereo not shown) [Example 193, 10-[(2,2′-Dimethoxy[1,1′-biphenyl]-4-yl)carbonyl]-N-methyl-N-(1-methyl-3-pyrrolidinyl)-10,11-dihydro-5H-pyrrolo[2,1-c][1,4]benzodiazepine-3-carboxamide] |

— US7109193B2, “Tricyclic diazepines tocolytic oxytocin receptor antagonists” (Wyeth, priority 2001, dated 2006)
